# Measurements published in US20240398706A1, “INJECTABLE FORMULATIONS OF APREPITANT” (Good Health, LLC, priority 2021, published 2024).
# Columns and labels:
# [1] = after oral administration; cited from earlier work
# [2] = pH and clarity of 5.55 mg/mL sodium oleate solution; type: physicochemical; conditions: sodium oleate 5.55 mg/mL solution
# Protocol: After the initial pH measurement discussed above, the compositions of this embodiment have a pH value of at least 7.5. In some embodiments the PH is in the range of between 7.5-10.5 or between 8.5-10.8. This pH value is observed a short period, e.g. a few days, after formation of the emulsion, and is to be contrasted with the initial pH value which is measured substantially immediately after the formation of the emulsion. Preferably, the fatty acid content of the oleate is high, e.g. at least about 80% and the alkalinity of oleate when tested as an aqueous solution is also relatively high, e.g. at least about pH of 10.3 of 0.55% W/V solution in water.
# [3] = Emulsion formation of Form-81 with sodium oleate from different sources; type: physicochemical; conditions: Form-81 with sodium benzoate, after mixing oil and water phases and stirring
# Protocol: The solution was heated to about 55-68° C., while stirring aprepitant was added and continued stirring until all of the drug is dissolved. After cooling to room temperature, Sodium oleate was added to mixture and stirred to get uniform dispersion. Ethanol quantity adjusted by adding ethanol to mixture to compensate loss. Weight of container was recorded at each stage.
# Oil phase slowly added to water phase slowly while water phase stirred at 1000 RPM using overhead stirrer.
# Coarse emulsion was milled using microfluidizer (Microfluidizer LM-25/30), […].
Structure (SMILES),oral bioavailability [1],Clarity [2],Emulsion formation [3],pH of 5.55 mg/mL solution [2],Emulsion formation ([3]; listed as oleate from Loba Chemie)
C[C@@H](O[C@H]1OCCN(Cc2n[nH]c(=O)[nH]2)[C@H]1c1ccc(F)cc1)c1cc(C(F)(F)F)cc(C(F)(F)F)c1 [Aprepitant],about 69%,,,,
"CCCCCCCC/C=C\CCCCCCCC(=O)[O-].[Na+] [Sodium Oleate from Doosan, South Korea, Sodium Oleate]",,Clear solution,slightly viscous emulsions,,
"CCCCCCCC/C=C\CCCCCCCC(=O)[O-].[Na+] [Sodium Oleate from Lipoid, Germany, Sodium Oleate]",,Hazy solution,slightly viscous emulsions,10.36,
"CCCCCCCC/C=C\CCCCCCCC(=O)[O-].[Na+] [Sodium Oleate from Loba Chemie, India, Sodium Oleate]",,Clear solution,Free flowing emulsion.,10.78,free-flowing emulsion
